Experimental data taken from paper PMC5712356, “A New Ala-122-Asn Amino Acid Change Confers Decreased Fitness to ALS-Resistant Echinochloa crus-galli” (Frontiers in Plant Science, 2017).

Tested on: T1, ALS (acetolactate synthase; acetohydroxyacid synthase, AHAS; EC 2.2.1.6)
T1 construct: not purified; polyploid species, ALS gene copies not separated
Experiment: acetoin (Westerfeld) colorimetric ALS assay, […] nm, log-logistic fit
Type: biochemical, Echinochloa crus-galli
Settings: sub-population S (no known ALS mutation); Na-pyruvate, MgCl2, TPP, FAD, pH 7.0, 37 °C, 90 min; partially purified leaf extract; read-out: I50

Row | Compound | IC50
1 | COCc1cnc(C2=NC(C)(C(C)C)C(=O)N2)c(C(=O)O)c1 (centres unmarked) [Imazamox] | 1740 nM
2 | COc1cc(OC)nc(NC(=O)NS(=O)(=O)c2ncccc2C(=O)N(C)C)n1 [Nicosulfuron] | 19 nM
